These results are taken from ChEMBL document CHEMBL5576135, “Discovery of Indolo[3,2-c]isoquinoline Derivatives as Novel Top1/2 Dual Inhibitors with Orally Efficacious Antitumor Activity and Low Toxicity” (J Med Chem, 2024).

In data set [1] the test system is HCT-116. Kind of data set: Antitumor activity against human HCT-116 cells xenografted with BALB/c mouse assessed as tumor growth inhibition by measuring T/C ratio at 20 mg/kg,ip administrated twice weekly for 21 days. The format is functional, organism-based. The settings on record: time 21.0 day. Background: A xenograft is tissue or cells of one species grown in another, often human tumour cells in immunodeficient mice.

The subject of data set [2] is HCT-116. Kind of data set: Antitumor activity against human HCT-116 cells xenografted with BALB/c mouse assessed as tumor growth inhibition at 20 mg/kg,ip administrated twice weekly for 21 days relative to control. The format is functional, organism-based. The settings on record: time 21.0 day.
The test system of data set [3] is NCI-H446. Kind of data set: Inhibition of cell migration in human NCI-H446 cells at 4 uM incubated for 48 hrs by phase-contrast microscopic analysis relative to control. The format is functional.
The nature of data set [4]: Antiproliferative activity against human BEAS-2B cells assessed as inhibition of cell growth incubated for 96 hrs by MTT based ELISA. The format is toxicity. A general note: An ELISA detects its analyte on a solid surface through an enzyme-linked reagent.
The subject of data set [5] is NCI-H446. Kind of data set: Induction of DNA damage in human NCI-H446 cells assessed as increase in intracellular ROS level at 8 uM incubated for 6 hrs by DCFHDA probe based fluorescence microscopic analysis. In kind it is functional, cell-based.
The test system of data set [6] is NCI-H1650. Kind of data set: Antiproliferative activity against human NCI-H1650 cells assessed as inhibition of cell growth incubated for 96 hrs by MTT based ELISA. The settings on record: NCI-H1650, 96 h. The format is functional.
The test system of data set [7] is NCI-H446. Kind of data set: Induction of apoptosis in human NCI-H446 cells at 8 uM incubated for 48 hrs by Annexin V-FITC/PI staining based flow cytometry relative to control. The format is functional. A general note: Flow cytometry measures light scatter and fluorescence of single cells or particles in a stream.
Data set [8] has as its system NCI-H446. Kind of data set: Inhibition of colony formation in human NCI-H446 cells at 1 uM incubated for 24 hrs by crystal violet staining based analysis relative to control. In kind it is functional.
Data set [9] concerns NCI-H446. Kind of data set: Induction of DNA damage in human NCI-H446 cells assessed as increase in intracellular gamma-H2AX level at 8 uM incubated for 48 hrs by Western blotting analysis. In kind it is functional, cell-based.
The subject of data set [10] is NCI-H446. Kind of data set: Induction of cell cycle arrest in human NCI-H446 cells assessed as accumulation of cells at S phase at 8 uM incubated for 48 hrs by propidium iodide/RNase A staining based flow cytometry. The format is functional.
The subject of data set [11] is MCF7. Kind of data set: Antiproliferative activity against human MCF7 cells assessed as inhibition of cell growth incubated for 96 hrs by MTT based ELISA. In kind it is functional. The settings on record: MCF7, 96 h.
In data set [12] the test system is Huh-7. Kind of data set: Antiproliferative activity against human Huh-7 cells assessed as inhibition of cell growth incubated for 96 hrs by MTT based ELISA. Particulars: Huh-7, 96 h. In kind it is functional.
In data set [13] the test system is MDA-MB-231. Kind of data set: Antiproliferative activity against human MDA-MB-231 cells assessed as inhibition of cell growth incubated for 96 hrs by MTT based ELISA. In kind it is functional. The settings on record: MDA-MB-231, 96 h.
Data set [14] relates to PC-3. Kind of data set: Antiproliferative activity against human PC-3 cells assessed as inhibition of cell growth incubated for 96 hrs by MTT based ELISA. The format is functional. The settings on record: PC-3, 96 h.
Data set [15] concerns NCI-H446. Kind of data set: Induction of DNA damage in human NCI-H446 cells assessed as tail DNA at 8 uM incubated for 48 hrs by comet assay relative to control. The format is functional.
The test system of data set [16] is NCI-H1975. Kind of data set: Antiproliferative activity against human NCI-H1975 cells assessed as inhibition of cell growth incubated for 96 hrs by MTT based ELISA. The format is functional. The settings on record: NCI-H1975, 96 h.
For data set [17], the system named is DU-145. Kind of data set: Antiproliferative activity against human DU-145 cells assessed as inhibition of cell growth incubated for 96 hrs by MTT based ELISA. The format is functional. The settings on record: DU-145, 96 h.
For data set [18], the system named is PC-9. Kind of data set: Antiproliferative activity against human PC-9 cells assessed as inhibition of cell growth incubated for 96 hrs by MTT based ELISA. In kind it is functional. Particulars: PC-9, 96 h.
The test system of data set [19] is NCI-H446. Kind of data set: Induction of cell cycle arrest in human NCI-H446 cells assessed as accumulation of cells at G2/M phase at 8 uM incubated for 48 hrs by propidium iodide/RNase A staining based flow cytometry. The format is functional.
Data set [20] in a line: Toxicity in Kunming mouse assessed as reduction in body weight at 30 mg/kg,ip administrated for 3 days. The format is organism-based. On the set-up: scale not given: the % may be the effect or the level left. The settings on record: in vivo, 72 h, time 3 day.
Data set [21] has as its system A549. Kind of data set: Antiproliferative activity against human A549 cells assessed as inhibition of cell growth incubated for 96 hrs by MTT based ELISA. Particulars: A549, 96 h. The format is functional.
For data set [22], the system named is NCI-H446. Kind of data set: Antiproliferative activity against human NCI-H446 cells assessed as inhibition of cell growth incubated for 96 hrs by MTT based ELISA. The format is functional. Particulars: NCI-H446, 96 h.
Data set [23] deals with NCI-H446. Kind of data set: Inhibition of colony formation in human NCI-H446 cells at 2 uM incubated for 24 hrs by crystal violet staining based analysis relative to control. The format is functional.
Data set [24] relates to HCT-116. Kind of data set: Antiproliferative activity against human HCT-116 cells assessed as inhibition of cell growth incubated for 96 hrs by MTT based ELISA. In kind it is functional. Particulars: HCT-116, 96 h.
The test system of data set [25] is NCI-H2228. Kind of data set: Antiproliferative activity against human NCI-H2228 cells assessed as inhibition of cell growth incubated for 96 hrs by MTT based ELISA. In kind it is functional. The settings on record: NCI-H2228, 96 h.
For data set [26], the system named is NCI-H446. Kind of data set: Antitumor activity against human NCI-H446 cells xenografted with BALB/c mouse assessed as tumor growth inhibition by measuring T/C ratio at 4 mg/kg,ip administrated 3 times weekly for 21 days in presence of cisplatin. In kind it is functional. Particulars: time 21 day.
Data set [27] concerns NCI-H446. Kind of data set: Antitumor activity against human NCI-H446 cells xenografted with BALB/c mouse assessed as tumor growth inhibition at 4 mg/kg,ip administrated 3 times weekly for 21 days in presence of cisplatin relative to control. The format is functional. Particulars: NCI-H446, 504 h, time 21 day, read-out: TGI.
The nature of data set [28]: Toxicity in Kunming mouse assessed as lethal dose at po administration for 2 weeks. Particulars: in vivo. The format is organism-based.
Data set [29] can be described thus: Toxicity in Kunming mouse assessed as reduction in body weight at 100 mg/kg,po administrated for 3 days. In kind it is organism-based. The settings on record: in vivo, 72 h, time 3 day. More on the design: scale not given: the % may be the effect or the level left.

The source made the active and inactive calls. The calls are words filed in the database; no cut-off is given here. Some results are limits rather than exact numbers.

As usually defined, the inhibition is how much of the control response was suppressed. As a reminder, the IC50 is the concentration that inhibits the measured activity by half. Usually T/C stands for the ratio of treated to control. One may read the LD50 as the dose at which mortality reaches 50%.

For the compound `CCc1c2c(nc3ccc(OC(=O)N4CCC(N5CCCCC5)CC4)cc13)-c1cc3c(c(=O)n1C2)COC(=O)[C@]3(O)CC` [IRINOTECAN], the inhibition entry in data set [1] and in [2] was “Active” each time. For the same compound, the inhibition at 4 µM in data set [3] worked out at 54.5%. Moreover, the IC50 at 96 h in [4] is over 10000 nM. The outcome in [5] and in [9] was Active. For the same compound, the half-maximal inhibitory concentration (IC50) in data set [6] was 6800 nM; in [11], 4590 nM; in data set [12], over 10000 nM; in data set [13], over 10000 nM; in data set [14], 3670 nM; in data set [16], 3410 nM. The half-inhibitory concentration (IC50) is 960 nM in data set [17]; 3840 nM in data set [18]; over 10000 nM in data set [21]; 780 nM in [22]; 3160 nM in data set [24]; 3430 nM in data set [25]. Besides, the Activity in [7] was 5.3%; in data set [10] it was 59.3%; in data set [15] it was 27.8%; in data set [19], 59.3%; in data set [20], over 10%. The compound further gave an inhibition at 1 µM in data set [8] of 85.8%. Further, the inhibition at 2 µM in data set [23] came out at 33.7%.

Regarding `COc1cc([C@@H]2c3cc4c(cc3[C@@H](O[C@@H]3O[C@@H]5CO[C@@H](C)O[C@H]5[C@H](O)[C@H]3O)[C@H]3COC(=O)[C@H]23)OCO4)cc(OC)c1O` [ETOPOSIDE], in data set [4], the IC50 at 96 h is over 10000 nM. In addition, the IC50 in data set [6] was 2650 nM; in [11] it was 1180 nM; in data set [12] it was 3800 nM; in data set [13], 2870 nM; in [14], 1590 nM; in data set [16], 340 nM. Also, the IC50 in [17] is 1650 nM; in data set [18] it was 2220 nM; in data set [21], over 10000 nM; in data set [22], 240 nM; in data set [24], 2000 nM; in [25] it was 2510 nM. The T/C in [26] stood at 68.2%. For the same compound, the inhibition in vivo at 4 mg/kg in data set [27] came out at 27.7%. The Activity in [20] is given as over 10%.

Take `CC[C@@]1(O)C(=O)OCc2c1cc1n(c2=O)Cc2cc3c(CN(C)C)c(O)ccc3nc2-1` [TOPOTECAN]: in data set [28], the LD50 at 336 h is under 1000 mg/kg. For the same compound, the Activity in data set [29] is over 10%.
